Test results: patent publication US20030130308A1, “Drugs for spinal anesthesia” (priority 2001, published 2003)
Entries after “also recorded” stand apart in the source; their conditions may differ. Counter-ions that a name gives are not always drawn. Marks after values point to notes of the source that are not given here.

How the values were obtained:
Type in all cases: in vivo
rats [1] = test: Rotarod performance after intrathecal injection; details: rat; for Rotarod Time: mean ± SD
Procedure: (§1) Rats were tested before 15 minutes through 240 minutes after intrathecal injection of 5 nmoles (in 10 μl) of 6-[2-(1(2)H-tetrazole-5-yl)ethyl]decahydroisoquinolone-3-carboxylic acid. Sensory function was tested at the hindpaw using withdrawal response to pinprick and withdrawal to pinch with a sharp forceps. Motor performance (ambulation, the placing reflex and Rotarod time), blood pressure and heart rate was also evaluated. Some tests were repeated the next day. Responses after 6-[2-(1(2)H-tetrazole-5-yl)ethyl]decahydroisoquinolone-3-carboxylic acid were compared to injection of 40 μl of bupivacaine, 0.75%. Pinprick responses at the forepaw, chest, abdomen, hindleg and hindpaw were also examined after intrathecal 6-[2-(1(2)H-tetrazole-5-yl)ethyl]decahydroisoquinolone-3-carboxylic acid.
(§2) Rats were anesthetized with halothane. The lumbar region was shaved, prepared with povidone-iodine, made kyphotic and incised 2 to 3 cm longitudinally in the midline at the level of the iliac crests. The space between the 5th and 6th lumbar vertebrae was punctured with 23G hypodermic needle and a 32G PU catheter (10 cm length, OD 0.0107 inches and ID 0.005 inches) reinforced with a Teflon coated stainless steel stylet (0.003 inches) was advanced through the needle cranially. The needle and the stylet were removed and the catheter withdrawn so that 6.5-7 cm extended outside of the lumbar masculature. The catheter was fixed to the fascia, sutured, inserted into an 8 cm length of PE-10 tubing and secured with glue covered with epoxy. The catheter was tunneled under the skin to the cervical region, flushed with saline and sealed with a cautery pen. The dead space of the catheter was 4.5 to 5 μl. The skin was closed and the rat was allowed to recover from anesthesia for 2-3 days.
(§3) Rats were trained over a two-day period. Training began by placing the rat on a Rotarod (Stoelting, Wood Dale, Ill.) that was fixed for three minutes. Then, three series of trials separated by 2-3 hours were performed. During each trial, the rat was placed on the Rotarod accelerating for the first 20 s then at a constant rate of approximately 5 rpm, until a 180 s cut off time. If the rat fell at any time during the initial trial, the trial was repeated. Each rat was allowed three attempts per trial. On the second day, the same procedure was repeated, though acceleration was sustained for 120 s to approximately 12 rpm, with a 150 second cut off time. On day 3, the test day, rats are again placed on the Rotarod and accelerated for 120 seconds to 12 rpm with the cutoff time of 150 seconds. Each rat was permitted 4 attempts at 15 minute intervals. Those successful in 2 of the 4 attempts continued in the protocol, and the average of the 4 attempts was considered the baseline (pre). […] Then the placing reflex was tested. Rats were placed on a table and the dorsum of either hindpaw was drawn across the edge of the table; this elicits a lifting of the paw onto the surface of the table (2=normal; 1=delay of 1-2 sec.; 0=more than 2 sec.). This test was performed 3 times for each hindlimb after each ambulation test. The sum of the three trials on both paws were recorded (1-12).
(§4) The dose and volume of drugs injected intrathecally were determined from the dose required to produce hindlimb sensory and motor loss in preliminary experiments. Bupivacaine HCl (0.75% in 8.25% dextrose for spinal injection) was purchased from Abbott Laboratories (Chicago, Ill.). The intrathecal injection volume was 40 μl. The compound was dissolved in 10% dextrose and water. The injection volume was 1 ul. All intrathecal drug injections were followed by a flush of 10 μl preservative-free saline.

rats [2] = test: Withdrawal response to pinch with forceps at the hindpaw after intrathecal injection; details: rat
Procedure: as §1, §2
First, the withdrawal response to pinprick was tested on each hindpaw. A 5 mm long tip of a safety pin attached to a von Frey filament (520 mN) was applied once to the plantar aspect of each hindpaw. Either a withdrawal response or a reaction occurred (1=positive response) or no withdrawal (0=no response). The sum of the scores (0, 1 or 2) for each rat was recorded. If no response or reaction was elicited by pinprick, a serrated dissecting forceps was used to pinch the skin of the plantar region for 2-3 sec. Again, withdrawal or reaction was considered a positive response (score=1) and the absence of both a negative test (score=0). […] Because the response to pinch was quite vigorous and rats were subjected to repeated tests in a single day, only rats unresponsive to pinprick were tested for pinch. If pinprick evoked a response, pinch was designated as positive also. The sum of the scores after pinch (0, 1 or 2) was recorded.
as §4

rats [3] = test: Overall sensory and motor blockade of the hindlimbs after intrathecal injection; details: rat
Procedure: as §1, §2, §4

rats [4] = test: Ambulation score after intrathecal injection; details: rat; for Ambulation Score: median (range)
Procedure: as §1, §2
as §3, with “(pre). After a two-hour period, the test drug was administered and rats were examined once on the Rotarod at 30, 60, 90, 120, 180, and 240 minutes.” for “(pre).”
as §4

rats [5] = test: Placing reflex (cumulative placing score) after intrathecal injection; details: rat; for Cumulative Placing Score: median (range)
Procedure: as §1, §2
as §3, with “(pre). After a two-hour period, the test drug was administered and rats were examined once on the Rotarod at 30, 60, 90, 120, 180, and 240 minutes.” for “(pre).”
as §4

[6] = Bupivacaine 0.75% 40 μl IT, n=8, 15 min
[7] = Bupivacaine 0.75% 40 μl IT, n=8, 30 min
[8] = Bupivacaine 0.75% 40 μl IT, n=8, 60 min
[9] = Bupivacaine 0.75% 40 μl IT, n=8, 90 min
[10] = Bupivacaine 0.75% 40 μl IT, n=8, 120 min
[11] = Bupivacaine 0.75% 40 μl IT, n=8, 180 min
[12] = Bupivacaine 0.75% 40 μl IT, n=8, 240 min
[13] = Bupivacaine 0.75% 40 μl IT, n=8, 24 hrs
[14] = Bupivacaine 0.75% 40 μl IT, n=8, Pre (before drug injection)
[15] = bupivacaine 0.75% 40 μl intrathecal
[16] = LY293558 5 nmoles IT, n=8, 15 min
[17] = LY293558 5 nmoles IT, n=8, 240 min
[18] = LY293558 5 nmoles IT, n=8, 24 hrs
[19] = LY293558 5 nmoles IT, n=8, Pre (before drug injection)
[20] = 5 nmoles intrathecal, from 15 minutes

CCCCN1CCCCC1C(=O)Nc1c(C)cccc1C (stereo not drawn) [Bupivacaine, Bupivacaine HCl]
Rotarod Time (rats [1]; [6]): 5 ± 6 s
Rotarod Time (rats [1]; [7]): 49 ± 42 s
Rotarod Time (rats [1]; [8]): 135 ± 43 s
Rotarod Time (rats [1]; [9]): 136 ± 39 s
Rotarod Time (rats [1]; [10]): 137 ± 26 s
Rotarod Time (rats [1]; [11]): 142 ± 15 s
Rotarod Time (rats [1]; [12]): 149 ± 2 s
Rotarod Time (rats [1]; [13]): 150 ± 0 s
Rotarod Time (rats [1]; [14]): 146 ± 8 s
rotorod performance decreased for (P<0.05 vs Pre) (rats [1]; [15]): 30 min
time of full recovery of response to pinch (rats [2]; [15]): 30 min
response to pinch vs Pre (rats [2]; bupivacaine 0.75% 40 μl intrathecal, 15 minutes after injection): reduced
sensory and motor responses (rats [3]; [15]): decreased
Ambulation Score (rats [4]; [6]): 0 (0-0)*
Ambulation Score (rats [4]; [7]): 1 (0-2)*
Ambulation Score (rats [4]; [8]): 2 (1-2)
Ambulation Score (rats [4]; [9]): 2 (1-2)
Ambulation Score (rats [4]; [10]): 2 (2-2)
Ambulation Score (rats [4]; [11]): 2 (2-2)
Ambulation Score (rats [4]; [12]): 2 (2-2)
Ambulation Score (rats [4]; [13]): 2 (2-2)
Ambulation Score (rats [4]; [14]): 2 (2-2)
ambulation decreased for (P<0.05 vs Pre) (rats [4]; [15]): 30 min
Cumulative Placing Score (rats [5]; [6]): 0 (0-0)*
Cumulative Placing Score (rats [5]; [7]): 6 (0-12)*
Cumulative Placing Score (rats [5]; [8]): 12 (1-12)
Cumulative Placing Score (rats [5]; [9]): 12 (0-12)
Cumulative Placing Score (rats [5]; [10]): 12 (12-12)
Cumulative Placing Score (rats [5]; [11]): 12 (12-12)
Cumulative Placing Score (rats [5]; [12]): 12 (12-12)
Cumulative Placing Score (rats [5]; [13]): 12 (12-12)
Cumulative Placing Score (rats [5]; [14]): 12 (12-12)
placing reflex decreased for (P<0.05 vs Pre) (rats [5]; [15]): 30 min

O=C(O)C1CC2CC(CCc3nnn[nH]3)CCC2CN1 (stereo not drawn) [LY293558, 6-[2-(1(2)H-tetrazole-5-yl)ethyl]decahydroisoquinolone-3-carboxylic acid]
Rotorod performance decreased through (P<0.05 vs Pre) (rats [1]; 5 nmoles intrathecal): 4 h
recovery of Rotorod performance the next day (rats [1]; 5 nmoles intrathecal, next day): full recovery
Rotarod Time (rats [1]; [16]): 3 ± 4 s
Rotarod Time (rats [1]; [17]): 115 ± 42 s
Rotarod Time (rats [1]; [18]): 149 ± 5 s
Rotarod Time (rats [1]; [19]): 144 ± 10 s
greater inhibition of pinch than bupivacaine (P<0.05) through (rats [2]; 5 nmoles intrathecal vs bupivacaine): 4 h
all rats failed to respond to pinch through (P<0.05 vs Pre) (rats [2]; [20]): 90 min
recovery of pinch response the next day (rats [2]; 5 nmoles intrathecal, next day): recovered fully
effects compared with bupivacaine (rats [3]; 5 nmoles intrathecal vs bupivacaine 0.75% 40 μl): more pronounced and sustained than bupivacaine; also recorded: more pronounced and prolonged
greater motor deficits than bupivacaine (P<0.05) in all tests of motor function, through (rats [3]; 5 nmoles intrathecal vs bupivacaine, from 30 minutes): 3 h
sensory and motor blockade of the hindlimbs (rats [3]; 5 nmoles intrathecal): reversible, sustained sensory and motor blockade
sensory and motor responses blocked through (rats [3]; 5 nmoles intrathecal): 180 min
recovery of sensory and motor responses the following day (rats [3]; 5 nmoles intrathecal, following day): complete recovery
time by which all rats had recovered ambulation (rats [4]; 5 nmoles intrathecal): ≤ 4 h
ambulation significantly impaired through (P<0.05 vs Pre) (rats [4]; [20]): 90 min
Ambulation Score (rats [4]; [16]): 0 (0-0)*
Ambulation Score (rats [4]; [17]): 2 (2-2)
Ambulation Score (rats [4]; [18]): 2 (2-2)
Ambulation Score (rats [4]; [19]): 2 (2-2)
placing reflex completely eliminated in all rats through (rats [5]; 5 nmoles intrathecal): 90 min
placing reflex impaired through (P<0.05 vs Pre) (rats [5]; 5 nmoles intrathecal): 3 h
Cumulative Placing Score (rats [5]; [18]): 12 (12-12)
Cumulative Placing Score (rats [5]; [19]): 12 (12-12)
